Assay results: patent US6562789B2, “Histidine derivatives, preparation process, and their use as free antiradical agents” (L'Oreal S.A., priority 1996, dated 2003)

Experiments:
[1] = anti-singlet-oxygen activity: deactivation of singlet oxygen, luminescence at 1270 nm, Stern-Volmer type analysis; type: physicochemical; conditions: for (kr + kq), sum of the rate constants for the chemical reaction and for the physical inhibition of singlet oxygen: singlet oxygen generated by irradiating Ru(bipy)3Cl at 437 nm in deuterated methanol, luminescence at 1270 nm
Description: The anti-singlet-oxygen activity of the compound of Example 1 was compared with that of N-octanoyl-β-alanyl-L-histidine (referred to as compound A) of the prior art, according to the following principle, which is also described in Pure & Appl. Chem., vol. 62, No. 8, 1467-1476 (1990).
In all the experiments, singlet oxygen was generated by irradiating at 437 nm Ru(bipy)3Cl (tris(2,2′-bipyridyl)ruthenium chloride hexahydrate) dissolved in deuterated methanol.
The sum of the physical inhibition constants (kq) and chemical reaction constants (kr) of singlet oxygen with the test compounds was determined.
The results for the deactivation of singlet oxygen can be analysed by measuring the luminescence (infrared emission) of singlet oxygen at 1270 nm, and by monitoring the kinetics of disappearance of oxygen.
The exploitation of the results is based on the Stern-Volmer type analysis principle: the signal obtained is measured in the absence (So) and in the presence (S) of the test compound, at various concentrations in the solution. The ratio So/S makes it possible to determine the value of (kr+kq) according to the following relationship:
[P] denotes the concentration of test compound in the solution, φo denotes the quantic yield of the emission in the absence of compound, φ denotes the quantic yield of the emission in the presence of compound, τo denotes the lifetime of singlet oxygen in deuterated methanol (270 μs), kr+kq denotes the sum of the rate constants for the chemical reaction and for the physical inhibition of singlet oxygen.

Structure (SMILES) | melting point [°C] | anti-singlet-oxygen activity compared with compound A of the prior art ([1]; comparison of (kr+kq) in deuterated methanol) | (kr + kq), sum of the rate constants for the chemical reaction and for the physical inhibition of singlet oxygen [1]
CCCCCCCCOC(=O)NCCC(=O)N[C@@H](Cc1c[nH]cn1)C(=O)O [Example 1, N-octyloxycarbonyl-β-alanyl-L-histidine] | 188 to 190 | significantly higher anti-singlet-oxygen activity | 8.8 × 10^6 ± 0.3 1.mol^−1.s^−1
CCCCCCCCCCCCOC(=O)NCCC(=O)N[C@@H](Cc1c[nH]cn1)C(=O)O [Example 2, N-dodecyloxycarbonyl-β-alanyl-L-histidine] | 168 to 172 |  | 
CCCCCCCC(=O)NCCC(=O)N[C@@H](Cc1c[nH]cn1)C(=O)O [Compound A, N-octanoyl-β-alanyl-L-histidine, reference compound] |  |  | 7.4 × 10^5 ± 0.4 1.mol^−1.s^−1
